Results: patent US10208044B2, “ACC inhibitors and uses thereof” (Gilead Apollo, LLC, priority 2013, dated 2019)

Experiments:
ACC2 [1] = biological target: ACC2 (Homo sapiens (Human), UniProt O00763); assay: in vitro ACC2 inhibition assay (ADP-Glo); format: biochemical; details: 5 nM ACC2, 20 μM ATP, 20 μM acetyl-CoA
Description: An exemplary procedure for the in vitro ACC inhibition assay, which can be used to determine the inhibitory action of compounds of the invention toward either ACC1 or ACC2, follows. The ADP-Glo™ Kinase Assay kit from Promega is used. The ADP-Glo™ Kinase Assay is a luminescent ADP detection assay to measure enzymatic activity by quantifying the amount of ADP produced during an enzyme reaction. The assay is performed in two steps; first, after the enzyme reaction, an equal volume of ADP-Glo™ Reagent is added to terminate the reaction and deplete the remaining ATP. Second, the Kinase Detection Reagent is added to simultaneously convert ADP to ATP and allow the newly synthesized ATP to be measured using a luciferase/luciferin reaction. Luminescence can be correlated to ADP concentrations by using an […]. The detailed procedure is as follows. 50 μL of the compound being tested (600 uM in DMSO) is added to a 384-well dilution plate. The compound is diluted 1:3 in succession in DMSO for each row for 11 wells. 0.5 μL ACC2 working solution is added to 384-well white Optiplate assay plate. 0.5 μL diluted compound solution in each column from step 2 is added to the assay plate, each row containing 2 replicates. For the last 2 rows, add 0.5 μL negative control (DMSO) in one row and 0.5 μL positive control (compound I-97) in the other. The plates are incubated at room temperature for 15 minutes. […] Plates are incubated at room temperature for 40 minutes, then read on a Perkin Elmer EnVision 2104 plate reader for luminescence as Relative Light Units (RLU).
Data for each concentration, as well as the positive and negative controls are averaged, and the standard deviation calculated. Percent inhibition is calculated by the formula: 100× (average negative control−compound)/(average negative control−average positive control). The IC50 for each compound is calculated by fitting the data with a non-linear regression equation: Y=Bottom+(Top-Bottom)/(1+10^((Log IC50-X)*HillSlope)), where X is the log of compound concentration and Y is percent inhibition. […]

ACC1 = ACC1 isolated from rat, mouse, monkey and human; cited from earlier work
ACC2 [2] = details: ACC2 isolated from rat, mouse, monkey and human; cited from earlier work

ACC2 (Homo sapiens (Human), UniProt O00763), sequence (O00763 whole entry, species assumed): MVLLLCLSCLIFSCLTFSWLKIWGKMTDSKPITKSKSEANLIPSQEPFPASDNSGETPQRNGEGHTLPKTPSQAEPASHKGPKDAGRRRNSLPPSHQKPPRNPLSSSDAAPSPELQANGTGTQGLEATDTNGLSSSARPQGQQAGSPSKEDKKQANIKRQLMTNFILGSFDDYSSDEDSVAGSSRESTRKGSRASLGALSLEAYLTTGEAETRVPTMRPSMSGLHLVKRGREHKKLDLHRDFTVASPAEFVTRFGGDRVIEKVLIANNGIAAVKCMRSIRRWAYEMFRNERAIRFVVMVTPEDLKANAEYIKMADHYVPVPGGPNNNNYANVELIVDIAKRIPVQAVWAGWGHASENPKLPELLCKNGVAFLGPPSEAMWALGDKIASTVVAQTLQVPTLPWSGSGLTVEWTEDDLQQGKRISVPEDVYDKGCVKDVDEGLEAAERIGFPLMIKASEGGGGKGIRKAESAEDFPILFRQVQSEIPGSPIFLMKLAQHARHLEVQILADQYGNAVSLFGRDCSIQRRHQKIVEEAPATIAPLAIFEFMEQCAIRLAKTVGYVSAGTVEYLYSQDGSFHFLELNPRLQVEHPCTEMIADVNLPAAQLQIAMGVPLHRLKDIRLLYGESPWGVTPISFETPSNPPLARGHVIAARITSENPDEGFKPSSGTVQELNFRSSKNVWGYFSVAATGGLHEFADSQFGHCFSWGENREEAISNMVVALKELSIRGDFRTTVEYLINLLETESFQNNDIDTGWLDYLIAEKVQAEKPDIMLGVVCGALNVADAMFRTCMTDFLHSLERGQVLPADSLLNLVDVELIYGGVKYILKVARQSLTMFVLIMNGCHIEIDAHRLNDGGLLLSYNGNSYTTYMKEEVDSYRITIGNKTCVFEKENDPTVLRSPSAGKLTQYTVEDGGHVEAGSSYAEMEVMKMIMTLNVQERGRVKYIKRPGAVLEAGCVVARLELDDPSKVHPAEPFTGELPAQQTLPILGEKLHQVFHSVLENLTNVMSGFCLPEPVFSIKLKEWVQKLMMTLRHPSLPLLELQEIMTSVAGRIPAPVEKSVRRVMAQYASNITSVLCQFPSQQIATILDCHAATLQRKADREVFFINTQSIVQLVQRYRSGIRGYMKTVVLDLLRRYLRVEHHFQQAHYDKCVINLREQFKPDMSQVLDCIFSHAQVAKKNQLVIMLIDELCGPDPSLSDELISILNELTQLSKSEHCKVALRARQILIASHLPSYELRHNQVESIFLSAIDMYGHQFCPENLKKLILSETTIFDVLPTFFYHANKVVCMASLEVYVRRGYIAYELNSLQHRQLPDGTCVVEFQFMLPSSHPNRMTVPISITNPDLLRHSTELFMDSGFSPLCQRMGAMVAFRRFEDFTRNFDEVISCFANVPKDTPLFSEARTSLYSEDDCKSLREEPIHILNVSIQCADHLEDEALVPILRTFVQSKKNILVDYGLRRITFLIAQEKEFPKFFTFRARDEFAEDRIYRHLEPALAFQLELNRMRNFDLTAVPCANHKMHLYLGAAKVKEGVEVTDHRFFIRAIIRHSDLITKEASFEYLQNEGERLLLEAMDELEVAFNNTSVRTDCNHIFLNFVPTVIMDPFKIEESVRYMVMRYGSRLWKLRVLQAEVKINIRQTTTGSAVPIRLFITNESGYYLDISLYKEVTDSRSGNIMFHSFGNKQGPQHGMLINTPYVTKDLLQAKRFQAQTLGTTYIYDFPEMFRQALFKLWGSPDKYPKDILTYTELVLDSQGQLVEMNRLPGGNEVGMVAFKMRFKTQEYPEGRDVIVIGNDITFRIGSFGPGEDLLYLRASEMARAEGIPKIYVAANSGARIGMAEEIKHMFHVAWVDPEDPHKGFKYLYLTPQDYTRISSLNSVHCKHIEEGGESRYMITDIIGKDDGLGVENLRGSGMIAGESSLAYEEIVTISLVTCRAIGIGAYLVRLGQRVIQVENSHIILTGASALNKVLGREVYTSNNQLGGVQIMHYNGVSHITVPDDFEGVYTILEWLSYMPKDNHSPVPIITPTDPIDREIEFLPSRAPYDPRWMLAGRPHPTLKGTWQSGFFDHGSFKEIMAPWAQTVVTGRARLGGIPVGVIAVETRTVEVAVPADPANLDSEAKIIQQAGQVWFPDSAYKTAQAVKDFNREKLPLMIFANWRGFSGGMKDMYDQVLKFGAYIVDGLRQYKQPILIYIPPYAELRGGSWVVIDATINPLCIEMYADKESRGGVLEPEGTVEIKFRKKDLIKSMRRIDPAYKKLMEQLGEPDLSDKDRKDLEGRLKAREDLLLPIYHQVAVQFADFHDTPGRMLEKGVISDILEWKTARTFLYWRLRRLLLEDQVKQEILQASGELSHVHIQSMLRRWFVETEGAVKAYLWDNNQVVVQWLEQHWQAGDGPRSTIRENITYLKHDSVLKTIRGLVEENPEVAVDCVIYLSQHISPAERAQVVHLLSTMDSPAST

Compound COc1ccc(F)cc1[C@H](Cn1c(=O)n(C(C)(C)C(N)=O)c(=O)c2cc(-c3ncco3)ccc21)OC1CCOCC1 [Compound I-29, (R)-2-(1-(2-(5-fluoro-2-methoxyphenyl)-2-((tetrahydro-2H-pyran-4-yl)oxy)ethyl)-6-(oxazol-2-yl)-2,4-dioxo-1,2-dihydroquinazolin-3(4H)-yl)-2-methylpropanamide] has an IC50 (ACC2 [1]) of 20 to 50 µM.

For O=C(c1c2ccccc2cc2ccccc12)N1CCC(N2CCC[C@@H](C(=O)N3CCOCC3)C2)CC1 [CP-640186], the IC50 (ACC1) is listed as roughly 0.06 µM and the IC50 (ACC2 [2]) is listed as roughly 0.06 µM.

With COc1ccc(F)cc1[C@H](Cn1c(=O)n(C(C)(C)C(=O)O)c(=O)c2cc(Br)ccc21)OC1CCOCC1 [Compound I-30, (R)-2-(6-bromo-1-(2-(5-fluoro-2-methoxyphenyl)-2-((tetrahydro-2H-pyran-4-yl)oxy)ethyl)-2,4-dioxo-1,2-dihydroquinazolin-3(4H)-yl)-2-methylpropanoic acid] the IC50 (ACC2 [1]) was 20 to 50 µM.

With COc1ccc(F)cc1[C@H](Cn1c(=O)n(C(C)(C)C(=O)O)c(=O)c2cc(-c3ncco3)ccc21)OC1CCOCC1 [Compound I-28, (R)-2-(1-(2-(5-fluoro-2-methoxyphenyl)-2-((tetrahydro-2H-pyran-4-yl)oxy)ethyl)-6-(oxazol-2-yl)-2,4-dioxo-1,2-dihydroquinazolin-3(4H)-yl)-2-methylpropanoic acid] the IC50 (ACC2 [1]) was 20 to 50 µM.
